The compounds below were run against Lysine--tRNA ligase (Homo sapiens, UniProt Q15046) (assay: Homogeneous Time-Resolved Fluorescence Assay).
Procedure: Homogeneous time-resolved fluorescence (HTRF) assays were performed in black, half-area, flat bottom, 96-well microplates (Costar #3694). Human mitochondrial LysRS with a C-terminal HA-tag (mLysRS-HA), diluted in HTRF buffer (10 mM Tris-HCl pH 7.5, 50 mM NaCl, 10 mM 2-mercaptoethanol, BSA at 1 mg/ml) was added (20 μl at a dimer concentration of 3.75 nM) in the wells of microplates placed on ice. Compounds of formula I or II (1 μl of a 10 mM solution in DMSO) were then added to the wells, and mixing was achieved by pipetting up and down 3-times 10 μl. After centrifugation at 900 g for 1 min at 4° C., plates were placed at 4° C. on thermal modules of an epMotion 5075 v automated pipetting system (Eppendorf). A 10 μl sample of IN-H6 diluted in HTRF buffer at a dimer concentration of 250 nM was added and mixing was achieved by pipetting up and down 3-times 15 μl. Incubation was conducted at 4° C. for 1 h. A 10 μl aliquot of a mix of antibodies prepared in HTRF buffer, directed to the His-tag, conjugated with Eu3+ cryptate (Cisbio #61HISKLB, 0.125 μl per test, prepared as recommended by the supplier), and to the HA-tag, conjugated with XL665 (Cisbio #610HAXLB, 0.375 μl per test, prepared as recommended by the supplier), was added and mixing was achieved by pipetting up and down 3-times 15 μl. Incubation was conducted at 4° C. for 30 min.

Chain of Lysine--tRNA ligase (Q15046 whole entry): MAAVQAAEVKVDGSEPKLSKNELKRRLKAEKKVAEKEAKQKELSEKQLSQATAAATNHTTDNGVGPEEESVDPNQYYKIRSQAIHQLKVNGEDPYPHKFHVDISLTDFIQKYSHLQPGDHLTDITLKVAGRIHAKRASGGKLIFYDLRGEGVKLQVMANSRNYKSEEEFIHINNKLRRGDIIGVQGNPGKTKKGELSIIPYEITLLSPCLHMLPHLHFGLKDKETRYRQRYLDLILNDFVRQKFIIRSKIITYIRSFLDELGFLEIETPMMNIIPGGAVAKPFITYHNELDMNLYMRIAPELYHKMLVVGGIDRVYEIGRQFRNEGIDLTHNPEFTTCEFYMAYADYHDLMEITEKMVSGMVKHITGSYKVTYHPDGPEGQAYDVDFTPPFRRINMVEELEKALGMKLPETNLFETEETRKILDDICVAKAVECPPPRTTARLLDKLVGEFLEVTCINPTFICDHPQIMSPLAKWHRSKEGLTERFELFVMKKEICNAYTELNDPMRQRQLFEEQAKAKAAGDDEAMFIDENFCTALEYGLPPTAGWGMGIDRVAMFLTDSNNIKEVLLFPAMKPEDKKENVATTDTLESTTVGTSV

First: CCOC(=O)C1=C(C)NC(C)=C(C(=O)OCC)C1c1ccccc1/C=C/C(=O)OC(C)(C)C [US20230414632, Compound I-a]
Second: COC(=O)C1=C(C)NC(C)=C(C(=O)OCC(C)C)C1c1ccccc1[N+](=O)[O-] (stereo unspecified) [US20230414632, Compound I-e]
The IC50 of the first is 6.9-fold lower: 65 µM for the first, 450 µM for the second.

`COCCOC(=O)C1=C(C)NC(C)=C(C(=O)OC/C=C/c2ccccc2)C1c1cccc([N+](=O)[O-])c1` (stereo unspecified) [US20230414632, Compound I-b] and `COC(=O)C1=C(C)NC(C)=C(C(=O)OC2CCCN(Cc3ccccc3)C2)C1c1cccc([N+](=O)[O-])c1` (stereo unspecified) [US20230414632, Compound I-f] are within 1.5-fold of each other in IC50: 400 µM for the first, 450 µM for the second.

`COC(=O)C1=C(C)NC(C)=C(C(=O)OCCN2CCN(C(c3ccccc3)c3ccccc3)CC2)C1c1cccc([N+](=O)[O-])c1` (stereo unspecified) [US20230414632, Compound I-g] and `COC(=O)C1=C(C)NC(C)=C(C(=O)OC(C)(C)CN(C)CCC(c2ccccc2)c2ccccc2)C1c1cccc([N+](=O)[O-])c1` (stereo unspecified) [US20230414632, Compound I-c] are within 1.5-fold of each other in IC50: 400 µM for the first, 320 µM for the second.

Reference: BindingDB's records for patent US20230414632 (Centre National De La Recherche Scientifique, 2023)
